These results are taken from ChEMBL document CHEMBL5365520, “Unlocking DCAFs To Catalyze Degrader Development: An Arena for Innovative Approaches” (J Med Chem, 2023).

Test [1] concerns the target DCAF1-BRD9 (Homo sapiens, UniProt Q9H8M2+Q9Y4B6). In words: PROTAC activity at DCAF1/BRD9 in HEK293T cells co expressing HiBit/FF/CAS9 assessed as reduction of protein degradation measured after 6 hrs by immunoblotting analysis. The class given is cell-based. (HiBiT is a short tag that completes a luciferase, so light tracks the accessible tagged protein.)
Test [2] has as its target von Hippel-Lindau disease tumor suppressor/Bromodomain-containing protein 4 (Homo sapiens, UniProt O60885+P40337). Briefly: PROTAC activity at VHL/BRD4 in human LNCaP cells assessed as reduction in protein degradation measured after 6 hrs by Western blot analysis. Type of test: cell-based. (In general: A western blot detects proteins with antibodies after separation by electrophoresis.)

The target in test [3] is DNA damage-binding protein 1 (Homo sapiens, UniProt Q16531). In words: Binding affinity to N-terminal His6-tagged human DDB1 expressed in baculovirus infected Hi-5 insect cells assessed as dissociation constant by SPR analysis. For orientation: In SPR one partner is held on a chip, and binding of the other changes the refractive index at the surface.
Test [4] has as its target DCAF11-BRD4 (Homo sapiens) (UniProt O60885+Q8TEB1). In words: PROTAC activity at DCAF11/BRD4 in HEK293T cells assessed as reduction of protein degradation at 1 uM measured after 24 hrs relative to control. The class given is cell-based. Set-up: scale not given: the % may be the effect or the level left.
Test [5] is described as follows: Binding affinity to biotinylated human DDA1/DDB1 (398 to 701 residues)/N-terminal His-ZZ-3C-tagged DCAF15/RBM39 RRM2 domain expressed in baculovirus infected Sf21 cells immobilized on SA chip assessed as dissociation constant by SPR analysis.
Test [6] is described as follows: Binding affinity to biotinylated human DDA1/DDB1 (398 to 701 residues)/N-terminal His-ZZ-3C-tagged DCAF15 expressed in baculovirus infected Sf21 cells immobilized on SA chip assessed as dissociation constant by SPR analysis.
The target of test [7] is T1, DDB1- and CUL4-associated factor 16/Bromodomain-containing protein 4 (Homo sapiens, UniProt O60885+Q9NXF7). In words: PROTAC activity at DCAF16/BRD4 in human PC-3 cells assessed as maximal degradation relative to control. The class given is cell-based.
In test [8] the target is T1, DDB1- and CUL4-associated factor 16/Bromodomain-containing protein 4. In words: PROTAC activity at DCAF16/BRD4 in human PC-3 cells assessed as reduction in protein degradation. The class given is cell-based.

The structures appear in SMILES notation. pEC50, pKd: −log10 of the molar value.

T1 sequence (Q9NXF7 whole entry, looked up, other chains not shown): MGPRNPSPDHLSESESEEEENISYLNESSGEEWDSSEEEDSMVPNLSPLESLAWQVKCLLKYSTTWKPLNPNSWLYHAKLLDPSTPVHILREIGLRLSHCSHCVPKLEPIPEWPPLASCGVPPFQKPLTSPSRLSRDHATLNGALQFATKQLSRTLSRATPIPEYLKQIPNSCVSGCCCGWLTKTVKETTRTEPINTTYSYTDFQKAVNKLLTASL
Chain of DCAF11-BRD4 (Homo sapiens) (Q8TEB1 whole entry, looked up, other chains not shown, the tested form may be a part): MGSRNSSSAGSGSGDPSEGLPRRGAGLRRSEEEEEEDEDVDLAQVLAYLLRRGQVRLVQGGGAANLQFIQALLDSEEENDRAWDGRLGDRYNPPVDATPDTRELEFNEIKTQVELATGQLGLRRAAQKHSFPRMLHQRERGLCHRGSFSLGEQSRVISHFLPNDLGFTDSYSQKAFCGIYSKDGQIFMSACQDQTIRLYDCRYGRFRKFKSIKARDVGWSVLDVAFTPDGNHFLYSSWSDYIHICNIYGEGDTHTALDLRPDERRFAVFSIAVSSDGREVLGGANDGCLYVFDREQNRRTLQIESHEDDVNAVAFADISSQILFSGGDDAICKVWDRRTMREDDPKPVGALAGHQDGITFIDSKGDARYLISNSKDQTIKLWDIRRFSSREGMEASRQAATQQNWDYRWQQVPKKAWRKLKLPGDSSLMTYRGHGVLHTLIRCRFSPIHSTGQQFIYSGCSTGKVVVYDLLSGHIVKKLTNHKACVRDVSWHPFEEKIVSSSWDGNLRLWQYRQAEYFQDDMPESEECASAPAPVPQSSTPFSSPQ
Chain of DCAF1-BRD9 (Q9H8M2 whole entry): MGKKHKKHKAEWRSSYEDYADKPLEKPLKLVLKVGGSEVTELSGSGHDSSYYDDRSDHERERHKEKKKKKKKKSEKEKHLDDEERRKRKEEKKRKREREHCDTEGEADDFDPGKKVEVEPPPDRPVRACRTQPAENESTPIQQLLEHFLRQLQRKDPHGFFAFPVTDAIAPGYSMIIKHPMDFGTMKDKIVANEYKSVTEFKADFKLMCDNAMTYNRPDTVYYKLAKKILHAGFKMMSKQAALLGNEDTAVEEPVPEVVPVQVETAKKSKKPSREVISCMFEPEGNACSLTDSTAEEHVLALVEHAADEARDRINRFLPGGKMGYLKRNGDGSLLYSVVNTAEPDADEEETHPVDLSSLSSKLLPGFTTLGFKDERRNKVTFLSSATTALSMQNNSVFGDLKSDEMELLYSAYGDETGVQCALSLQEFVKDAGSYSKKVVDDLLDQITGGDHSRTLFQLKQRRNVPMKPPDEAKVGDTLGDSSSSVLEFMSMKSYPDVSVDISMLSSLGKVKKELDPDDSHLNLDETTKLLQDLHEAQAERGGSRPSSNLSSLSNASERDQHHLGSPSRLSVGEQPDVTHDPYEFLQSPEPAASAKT
Chain of DCAF1-BRD9 (Q9Y4B6 whole entry): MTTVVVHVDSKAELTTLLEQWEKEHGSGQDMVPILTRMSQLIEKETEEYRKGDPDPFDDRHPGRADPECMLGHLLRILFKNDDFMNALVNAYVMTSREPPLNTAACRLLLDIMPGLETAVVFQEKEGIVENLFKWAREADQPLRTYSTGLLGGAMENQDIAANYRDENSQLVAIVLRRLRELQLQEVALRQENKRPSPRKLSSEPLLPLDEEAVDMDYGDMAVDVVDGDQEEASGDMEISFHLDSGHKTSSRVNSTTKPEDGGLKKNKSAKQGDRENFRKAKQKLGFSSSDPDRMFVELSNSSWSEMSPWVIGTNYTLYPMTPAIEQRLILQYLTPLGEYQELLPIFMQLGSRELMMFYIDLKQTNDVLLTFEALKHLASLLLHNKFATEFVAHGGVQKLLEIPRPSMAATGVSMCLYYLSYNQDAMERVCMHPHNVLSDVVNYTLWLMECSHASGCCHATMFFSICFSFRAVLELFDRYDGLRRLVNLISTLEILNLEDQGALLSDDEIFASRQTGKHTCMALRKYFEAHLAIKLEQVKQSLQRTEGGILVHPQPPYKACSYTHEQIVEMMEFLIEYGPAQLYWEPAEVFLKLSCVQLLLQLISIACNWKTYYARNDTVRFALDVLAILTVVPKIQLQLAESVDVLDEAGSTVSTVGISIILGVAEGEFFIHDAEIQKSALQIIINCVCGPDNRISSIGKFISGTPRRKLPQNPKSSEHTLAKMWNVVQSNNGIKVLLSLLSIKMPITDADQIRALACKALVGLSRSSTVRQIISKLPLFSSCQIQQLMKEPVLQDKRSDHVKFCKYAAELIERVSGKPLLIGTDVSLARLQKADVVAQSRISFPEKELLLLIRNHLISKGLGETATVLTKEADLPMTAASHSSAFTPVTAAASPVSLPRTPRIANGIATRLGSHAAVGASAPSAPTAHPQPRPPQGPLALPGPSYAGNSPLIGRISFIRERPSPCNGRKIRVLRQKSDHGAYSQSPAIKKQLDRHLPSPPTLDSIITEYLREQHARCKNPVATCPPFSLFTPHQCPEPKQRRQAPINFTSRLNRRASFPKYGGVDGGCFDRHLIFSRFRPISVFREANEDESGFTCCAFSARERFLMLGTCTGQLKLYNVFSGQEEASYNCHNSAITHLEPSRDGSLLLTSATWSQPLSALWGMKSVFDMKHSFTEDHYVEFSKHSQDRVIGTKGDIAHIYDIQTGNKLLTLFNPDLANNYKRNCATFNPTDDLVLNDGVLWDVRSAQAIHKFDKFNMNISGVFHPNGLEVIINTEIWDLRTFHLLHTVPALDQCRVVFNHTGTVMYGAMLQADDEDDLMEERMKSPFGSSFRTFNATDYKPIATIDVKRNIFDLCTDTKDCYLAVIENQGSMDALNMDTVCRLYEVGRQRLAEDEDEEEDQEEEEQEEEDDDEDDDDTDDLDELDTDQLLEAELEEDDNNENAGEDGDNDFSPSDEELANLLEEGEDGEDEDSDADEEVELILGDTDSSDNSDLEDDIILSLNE
Chain of DNA damage-binding protein 1 (Q16531 whole entry): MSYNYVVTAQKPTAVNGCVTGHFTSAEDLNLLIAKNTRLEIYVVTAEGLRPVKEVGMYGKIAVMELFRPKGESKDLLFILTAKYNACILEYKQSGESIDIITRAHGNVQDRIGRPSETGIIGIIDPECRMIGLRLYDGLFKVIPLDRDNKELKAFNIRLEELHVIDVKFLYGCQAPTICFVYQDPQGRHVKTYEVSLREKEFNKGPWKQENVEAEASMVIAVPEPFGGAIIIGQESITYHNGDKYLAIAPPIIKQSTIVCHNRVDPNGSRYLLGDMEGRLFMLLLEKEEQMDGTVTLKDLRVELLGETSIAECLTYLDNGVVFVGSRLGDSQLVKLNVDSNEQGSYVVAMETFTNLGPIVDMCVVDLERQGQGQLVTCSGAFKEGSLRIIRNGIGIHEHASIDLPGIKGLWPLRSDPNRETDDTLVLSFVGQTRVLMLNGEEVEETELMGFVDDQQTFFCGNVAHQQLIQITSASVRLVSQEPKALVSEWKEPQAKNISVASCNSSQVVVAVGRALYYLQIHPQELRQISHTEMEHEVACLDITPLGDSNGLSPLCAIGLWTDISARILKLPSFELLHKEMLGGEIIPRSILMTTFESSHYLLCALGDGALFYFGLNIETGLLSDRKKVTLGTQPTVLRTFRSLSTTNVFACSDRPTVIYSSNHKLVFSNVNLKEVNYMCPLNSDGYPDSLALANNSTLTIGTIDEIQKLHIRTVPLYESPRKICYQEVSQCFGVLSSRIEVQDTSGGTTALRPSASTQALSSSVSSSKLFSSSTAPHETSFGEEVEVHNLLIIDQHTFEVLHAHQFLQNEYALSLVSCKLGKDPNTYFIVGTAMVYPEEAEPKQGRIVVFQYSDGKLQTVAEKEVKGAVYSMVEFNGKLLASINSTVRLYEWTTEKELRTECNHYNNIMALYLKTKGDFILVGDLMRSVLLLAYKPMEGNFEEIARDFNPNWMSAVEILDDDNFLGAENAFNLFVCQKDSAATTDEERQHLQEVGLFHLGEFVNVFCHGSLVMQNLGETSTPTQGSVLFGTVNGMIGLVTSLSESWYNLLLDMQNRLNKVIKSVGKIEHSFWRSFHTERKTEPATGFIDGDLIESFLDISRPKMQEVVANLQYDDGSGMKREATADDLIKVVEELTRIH
Chain of von Hippel-Lindau disease tumor suppressor/Bromodomain-containing protein 4 (P40337 whole entry, looked up, other chains not shown): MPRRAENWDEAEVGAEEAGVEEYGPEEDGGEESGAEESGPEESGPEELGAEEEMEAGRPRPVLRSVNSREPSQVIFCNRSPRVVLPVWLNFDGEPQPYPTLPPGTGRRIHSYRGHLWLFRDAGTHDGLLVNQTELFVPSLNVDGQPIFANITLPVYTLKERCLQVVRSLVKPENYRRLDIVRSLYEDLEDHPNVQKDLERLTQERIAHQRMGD

`COc1cc(-c2cncc3c(=O)n(C)ccc23)c(OC)cc1CN1CCC(OCCCCCC(=O)N2CCN(c3ccc4c(NCCN)nc(C5(c6ccc(Cl)cc6)CCCCC5)nc4c3)CC2)CC1`: the pEC50 (in general, the negative decadic logarithm of the EC50, by convention in mol/L) in test [1] was approximately 6.30.

For `Cc1sc2c(c1C)C(c1ccc(-c3ccc(C(=O)NCc4ccc(S(=O)(=O)Nc5ccc(C)c6c(C#N)c[nH]c56)cc4)cc3)cc1)=N[C@@H](CC(=O)OC(C)(C)C)c1nnc(C)n1-2`, the pEC50 in test [2] is 9.82.

Turning to `Cc1cc(NCCOCCOCCOCCOCCOCCN)ccc1C(=O)Nc1nc(C)c(C)s1`, the pKd (as a rule, the negative decadic logarithm of the Kd, by convention in mol/L) in test [3] was more than 4.70.

With `Cc1sc2c(c1C)C(c1ccc(-c3cccc(NC(=O)c4cn5ccccc5n4)c3)cc1)=N[C@@H](CC(N)=O)c1nnc(C)n1-2`, the Activity in test [4] is 95%.

Regarding `NS(=O)(=O)c1ccc(S(=O)(=O)Nc2cccc3c(Cl)c[nH]c23)cc1` [INDISULAM], the values for the pKd in test [5] and in test [6] were 6.87 and less than 4.30, respectively.

Turning to `Cc1sc2c(c1C)C(c1ccc(C#CCN)cc1)=N[C@@H](CC(=O)OC(C)(C)C)c1nnc(C)n1-2`, the Emax (usually the size of the effect at its maximum, as opposed to the concentration needed) in test [7] is 84%. Further, in test [8], the DC50 (usually the concentration at which degradation of the target reaches its halfway point) came out at 1.4 nM.
